In a melting point compilation (Tetko et al.):

Row | SMILES | melting point
1 | O=C(CC(c1ccccc1)c1ccccc1)c1ccccc1 | 96 °C
2 | Cc1cc2ccccc2cc1CC(F)(F)F | 75 to 75.5 °C
3 | O=CN(C=O)C(N(C=O)C=O)N(C=O)C=O | 145 °C
4 | COc1ccccc1C1CCN(c2ccc(C=O)cc2[N+](=O)[O-])CC1 | 116 to 118 °C
5 | CC(C)Nc1ccc(Cl)cc1[N+](=O)[O-] | 72 to 74 °C
6 | O=c1cccc2n1CC1CNCC2C1 (stereo not drawn) | 152 °C
7 | N#Cc1ccc(O)c([N+](=O)[O-])c1 | 143 to 148 °C
8 | Cc1ccc(C=C2C(=O)OC(C)(C)OC2=O)o1 | 93 °C
9 | COC(=O)C(Cc1ccccc1)NC(=O)C(N)CC(=O)O (stereo not drawn) | 246 °C
10 | CCCCCCCCCCCCCCCCCCC(=O)NC | 91 to 94 °C
11 | Cc1ccc(N)cc1O | 160 to 165 °C
12 | Clc1ccc(/C=C(\Oc2ccc(Cl)cc2Cl)c2nc3ccccc3s2)cc1 | 156 °C
13 | CC(CC(=O)OOC(C)(C)C)CC(C)(C)C (stereo not drawn) | -30 °C
14 | COC(=O)C1(C)CCC(C(=O)O)C1(C)C (stereo not drawn) | 74 to 78 °C
15 | CCOC(=O)c1c(C)csc1N | 81 °C
16 | S=C(c1ccc2c(c1)OCO2)N1CCOCC1 | 154 °C
17 | c1ccc(Cc2nc3ccccc3nc2Cc2ccccc2)cc1 | 118 °C
18 | CC1=C(O)C(=O)CC(C)(C)C1 | 89 °C
19 | CCCSc1sc(C(=O)OC)c2c1C(=O)CC(C)(C)C2 | 95 to 98 °C
20 | Cc1ccc(N=C=O)cc1[N+](=O)[O-] | 51 °C
21 | COc1ccc(C2(C)CCc3oc4ccc(Cl)cc4c3-c3oc(C)cc32)cc1 (stereo not drawn) | 144 °C
22 | CCC1CC(OC(=O)c2ccc([N+](=O)[O-])cc2)CC(C)(C)N1O (stereo not drawn) | 145 to 147 °C
23 | Cc1cccc(C(N)=O)c1C | 157 °C
24 | Cc1noc(-c2ccccc2)c1N=C=O | 79 to 81 °C
25 | Nc1nn2c(C(F)(F)F)cc(=O)[nH]c2c1/N=N/c1ccc(S(=O)(=O)O)cc1 | 292 °C
26 | CCOC(=O)C=Cc1ccc(C=CC(=O)OCC)c(N)c1 | 178 °C

Row | SMILES | melting point
27 | NNC(=O)Cc1ccccc1 | 115 to 117 °C
28 | Nc1ccc(Br)cc1C(=O)c1ccccc1F | 100 to 104 °C
29 | CSCC[C@H](NC(=O)OCC1c2ccccc2-c2ccccc21)C(=O)O | 132 to 136 °C
30 | CCOC(=O)c1c(C)oc2c(F)c(F)c(F)c(F)c12 | 70 °C
31 | COc1ccc2c(c1)C(=O)N(CCc1ccc(S(=O)(=O)NC(=O)NC3CCCCC3)cc1)C(=O)C2(C)C | 181 °C
32 | CNC(=O)ON=C(CSC)C(C)(C)C | 57 °C
33 | O=C(C=Cc1ccc(C=CC(=O)Nc2ccccc2)cc1)Nc1ccccc1 | 292 to 294 °C
34 | CCOC(=O)c1cn[nH]c1NC(=O)Nc1ccccc1 | 242 to 245 °C
35 | CCOc1ccc(C(=S)N2CCOCC2)cc1OC | 119 °C
36 | O=C(CCl)N1CCOCC1 | 37 °C
37 | N#C/C(=C/c1ccccc1)c1ccc(Cl)cc1 | 116 °C
38 | Cc1nc(-c2ccccc2)c(CO)s1 | 143 to 147 °C
39 | Cc1c(C(=O)O)cc(-c2ccccc2)n1CCCN1CCOCC1 | 172 to 177 °C
40 | Brc1ccc(Oc2c(Br)cc(Br)cc2Br)c(Br)c1 | 97 to 98 °C
41 | O=C(C(=O)c1cccc2ccccc12)c1ccccc1 | 102 °C
42 | O=C1OC(=O)C2=C1SCCS2 | 213 to 214 °C
43 | COc1cc(OC)nc(NC(=O)NS(=O)(=O)c2cc(NC=O)ccc2C(=O)N(C)C)n1 | 194 °C
44 | NS(=O)(=O)c1cc(C(=O)OCOC(=O)c2ccccc2)c(NCc2ccco2)cc1Cl | 179 °C
45 | COc1cc(C)c2c(c1)CC2=O | 83 °C
46 | CC(C)(C)OC(=O)NC1(C(=O)O)CCCCC1 | 177 °C
47 | O=P(OC(CCl)CCl)(OC(CCl)CCl)OC(CCl)CCl | 27 °C
48 | O=c1ccc2cc(OC3OC(CO)C(O)C(O)C3O)c(O)cc2o1 (stereo not drawn) | 205 °C
49 | CC1=C(C(=O)O)CCCO1 | 119 °C
50 | COc1c(F)cc(N)cc1F | 79 °C
51 | CCOC(=O)NC(=O)Nn1c(S)nnc1C(F)(F)F | 232 °C
52 | CC(F)(Cl)CCl (stereo not drawn) | -91.7 °C

Row | SMILES | melting point
53 | O=C(NC(=O)c1c(F)cccc1F)Nc1cc(Cl)c(F)c(Cl)c1F | 225 °C
54 | COC1OC(C(=O)O)C(OC2OC(C(=O)O)C(OC)C(O)C2O)C(O)C1O (stereo not drawn) | 300 °C
55 | O=Cc1c(F)cc(O)cc1F | 181 °C
56 | Cn1cnc2ccccc21 | 61 °C
57 | CCC1CN2CCC3(C(=O)Nc4ccccc43)C2CC1C(=COC)C(=O)OC (stereo not drawn) | 216 °C
58 | CN(C)C(CSC(N)=O)CSC(N)=O | 188 °C
59 | O=C(C=Cc1ccccc1)n1ccnc1 | 127 to 133 °C
60 | CC[Si](Cl)(Cl)Cl | -106 °C
61 | CCCCc1c(C)nc(N(C)C)nc1O | 102 °C
62 | O=C(O)C(O)c1cc(F)cc(F)c1 (stereo not drawn) | 136 °C
63 | Cn1c(=O)c(C2=NNC(=O)C2=CNc2ccc(Br)cc2)c(O)c2ccccc21 | 293 °C
64 | CCCCCc1ccc(-c2nnc(S)[nH]2)cc1 | 190 to 193 °C
65 | CCSc1ccc2c(c1)N(CCCN1CCN(C)CC1)c1ccccc1S2 | 63 °C
66 | O=C1OC2(Cc3ccccc31)Cc1ccccc12 (stereo not drawn) | 88 °C
67 | COc1cc(OC)c2c(=O)c(=O)c2c1 | 149 °C
68 | O=C(O)c1ccc(N2C(=O)C3ON=C(C(=O)c4ccc(Cl)cc4)C3C2=O)cc1 (stereo not drawn) | 143 °C
69 | Cc1cc(C2CC2)nc(Nc2ccccc2)n1 | 75.9 °C
70 | Cc1ccc(C(N)=O)c(N)c1 | 147 to 148 °C
71 | CC1(C)OC(=O)C(=NNc2ccc(C(=O)O)cc2)C(=O)O1 | 223 °C
72 | N#C/C(=N\Nc1cccc([N+](=O)[O-])c1)c1nc2ccccc2[nH]1 | 306 to 308 °C
73 | Cc1ccc(N=Nc2ccccc2)cc1 | 71.5 °C
74 | Brc1ccncc1 | 0.5 °C
75 | NCC(=O)NCC(=O)O | 262 to 264 °C
76 | CC1(C)OCC(C2OC3OC(C)(C)OC3C2O)O1 (stereo not drawn) | 109 °C
77 | Cc1nnsc1-c1nnc(S)n1C1CC1 | 212 to 213 °C
78 | CC(C)(C)C(=O)NNCc1ccccc1 | 68.5 °C

Row | SMILES | melting point
79 | C=CC(=O)OCC(CC)CC | -70 °C
80 | CC(=O)NCc1cnccc1C | 92 °C
81 | CC(=O)C12OC1CC1C3CCC4=CC(=O)CCC4(C)C3C(O)CC12C (stereo not drawn) | 206 °C
82 | CCOC(=O)c1nn(-c2ccc(C)cc2)c(C)c1C(=O)c1noc(-c2ccc3ccccc3c2)c1S(=O)(=O)c1ccccc1 | 172 °C
83 | CC(Cc1ccccc1)(C(=O)O)C(=O)O | 132 °C
84 | CN(C)c1ccc(C2(c3ccc(N(C)C)cc3)OC(=O)c3cc(N(C)C)ccc32)cc1 | 182 °C
85 | Cc1cc(I)c(C)cc1I | 103 to 104 °C
86 | Brc1cccc(-c2cnco2)c1 | 59 to 61 °C
87 | CCCCC(C=O)NC(=O)C(CC(C)C)NC(=O)OCc1ccccc1 (stereo not drawn) | 60 to 75 °C
88 | COC(=O)c1ccc(OC)c(Br)c1 | 97 °C
89 | CC1C(=O)C23C(O)CC4C(C)(C)CCCC45COC(CC1C2O)C53 (stereo not drawn) | 218 to 221 °C
90 | CN(N)c1ccc(C(F)(F)F)cn1 | 52 to 55 °C
91 | O=c1[nH]c(=O)n(-c2cccc(C(F)(F)F)c2)c2c1CCCC2 | 252 to 255 °C
92 | CC(C)C1CCC2(C)CC(O)C3(C)CCC12O3 (stereo not drawn) | 114 °C
93 | CC[C@H](C)[C@@H](N)C(=O)O | 285 °C
94 | N#Cc1ccccc1N1CCCCC1 | 45 to 48 °C
95 | CC(C)(C)c1cc(N)c(C(N)=O)s1 | 146 to 148 °C
96 | CCCCCCCc1ccccc1 | -48 °C
97 | O=Cc1cc(F)c(O)cc1F | 147 °C
98 | BrCCCCCBr | -34 °C
99 | COC(=O)c1ccc(C(=O)OC)c(F)c1 | 82 °C
100 | N#Cc1nccc2ccccc12 | 89 °C
101 | CC12CCC(/C(=C\Nc3ccccc3C(=O)O)C1=O)C2(C)C (stereo not drawn) | 176 °C
102 | Cc1ccc(C=Nc2n[nH]c(N=Cc3ccc(C)cc3)c2Cc2ccc(Cl)cc2)cc1 | 248 to 250 °C
103 | c1ccc(N2CSc3nnc(-c4cccnc4)n3C2)nc1 | 278 to 280 °C
104 | S=c1[nH]ccn1-c1ccccc1Cl | 246 to 248 °C

Row | SMILES | melting point
105 | COc1ccc(C(=O)O)cc1OC1CCCC1 | 164 to 166 °C
106 | O=C1NN=C(C(F)(F)F)C1=NNc1ccccc1 | 186 °C
107 | NC(=S)Cc1ccc(-c2csnn2)cc1 | 169 to 171 °C
108 | CCOC(=O)c1ccc(N/C=C2\C(=O)C3(C)CCC2C3(C)C)cc1 (stereo not drawn) | 105 °C
109 | CC1C(=O)C2(C)CCC1C2(C)C (stereo not drawn) | 38 °C
110 | CC(=O)Nc1ccc(Cl)cc1C | 136 to 138 °C
111 | S=c1[nH]c2ccc(Cl)cc2o1 | 229 to 232 °C
112 | CCOC(=O)Nc1ccc(C)cc1[N+](=O)[O-] | 64 to 65 °C
113 | CCCCCN | -50 °C
114 | O=C(O)COc1c(Cl)ccc(Cl)c1Cl | 148 °C
115 | N#Cc1c(Cl)ccc([N+](=O)[O-])c1Cl | 108 °C
116 | CCOC=C(C#N)S(=O)(=O)Cc1ccco1 | 98 to 100 °C
117 | CC(C)(C)c1cc(CC(=O)O)cc(C(C)(C)C)c1O | 157 to 158 °C
118 | CC(=O)OC1CCC2(C)C(CCC3C2CCC2(C)C3CCC23OCCO3)C1 (stereo not drawn) | 153 °C
119 | CCC1c2ccccc2N(C)C12C=Cc1cccc([N+](=O)[O-])c1O2 (stereo not drawn) | 148 °C
120 | O=C(O)C1NCCS1 (stereo not drawn) | 182 °C
121 | O=C(O)C1CCCN1 (stereo not drawn) | 228 to 233 °C
122 | CC(C)(C)OC(=O)N1CCN(c2ccc(C=O)cn2)CC1 | 126 to 128 °C
123 | CCOc1cc(NC(C)=O)ccc1C(=O)OC | 148 °C
124 | N#Cc1cccc2c(NC(=O)c3ccccc3)cccc12 | 211 to 212 °C
125 | Fc1ccccc1-c1ccccc1F | 112 to 114 °C
126 | COC(=O)c1ccccc1OCc1ccccc1 | 47 °C
127 | CC12CCC(O)CC1CCC1C2CCC2(C)C(OC(=O)c3ccccc3)CCC12 (stereo not drawn) | 194 °C
128 | CNC(=S)NCc1ccccc1 | 75 °C
